Data: publication PMC4159287, “Characterization of a Soluble Phosphatidic Acid Phosphatase in Bitter Melon (Momordica charantia)” (PLoS ONE, 2014)

Test system: T1, soluble phosphatidic acid phosphatase (PAP), Mg2+-independent, partially purified from bitter melon cotyledons
T1 construct: many copurified proteins, no PAP peptide found by LC/MS/MS
Test: Pi release, ammonium molybdate-acetone-acid, A355
Assay type: biochemical, Momordica charantia
Conditions: pH 6.5, 53°C, 0.3 mM MgCl2, 50 mM imidazole, DPA 0-500 µM, sigmoidal curve

- Km: 595 µM
Structure (SMILES): CCCCCCCC/C=C\CCCCCCCC(=O)OC[C@H](COP(=O)(O)O)OC(=O)CCCCCCC/C=C\CCCCCCCC [DPA, 1,2-dioleoyl-sn-glycero-3-phosphate]
